PubChem BioAssay (NCI)
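All cell lines were grown in 96-well plates and treated with compound for 48 hours. At the TGI there is no net growth.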

Columns and labels:
Experiment in all cases: NCI anticancer screen, dose series, 48 h
[1] = system: 786-0 renal
[2] = system: A498 renal
[3] = system: A549 NSCLC
[4] = system: ACHN renal
[5] = system: BT-549 breast
[6] = system: CAKI-1 renal
[7] = system: CCRF-CEM leukemia
[8] = system: COLO 205 colon
[9] = system: DU-145 prostate
[10] = system: EKVX NSCLC
[11] = system: HCC-2998 colon
[12] = system: HCT-116 colon
[13] = system: HCT-15 colon
[14] = system: HL-60(TB) leukemia
[15] = system: HOP-62 NSCLC
[16] = system: HOP-92 NSCLC
[17] = system: HS 578T breast
[18] = system: HT29 colon
[19] = system: IGROV1 ovarian
[20] = system: K-562 leukemia
[21] = system: KM12 colon
[22] = system: LOX IMVI melanoma
[23] = system: MCF7 breast
[24] = system: MDA-MB-231 breast
[25] = system: MDA-MB-435
[26] = system: MDA-N
[27] = system: MOLT-4 leukemia
[28] = system: NCI-H226 lung
[29] = system: NCI-H23 lung
[30] = system: NCI-H460 lung
[31] = system: NCI-H522 lung
[32] = system: NCI/ADR-RES ovarian
[33] = system: OVCAR-3 ovarian
[34] = system: OVCAR-4 ovarian
[35] = system: OVCAR-5 ovarian
[36] = system: OVCAR-8 ovarian
[37] = system: PC-3 prostate
[38] = system: RPMI-8226 leukemia
[39] = system: RXF 393 renal
[40] = system: SF-268 CNS
[41] = system: SF-295 CNS
[42] = system: SF-539 CNS
[43] = system: SK-MEL-28 melanoma
[44] = system: SK-MEL-5 melanoma
[45] = system: SN12C renal
[46] = system: SNB-19 CNS
[47] = system: SNB-75 CNS
[48] = system: SR leukemia
[49] = system: SW-620 colon
[50] = system: TK-10 renal
[51] = system: U251 CNS
[52] = system: UACC-257 melanoma
[53] = system: UO-31 renal
[54] = system: M14 melanoma
[55] = system: MALME-3M melanoma
[56] = system: SK-MEL-2 melanoma
[57] = system: SK-OV-3 ovarian
[58] = system: T-47D breast
[59] = system: UACC-62 melanoma

O=[N+]([O-])c1ccc2c(c1)Sc1ccccc1N2CCCCCl
TGI [1]: > 100 µM
TGI [2]: > 100 µM
TGI [3]: > 100 µM
TGI [4]: > 100 µM
TGI [5]: > 100 µM
TGI [6]: > 100 µM
TGI [7]: > 100 µM
TGI [8]: > 100 µM
TGI [9]: > 100 µM
TGI [10]: > 100 µM
TGI [11]: > 100 µM
TGI [12]: > 100 µM
TGI [13]: > 100 µM
TGI [14]: > 100 µM
TGI [15]: > 100 µM
TGI [16]: > 100 µM
TGI [17]: > 100 µM
TGI [18]: > 100 µM
TGI [19]: > 100 µM
TGI [20]: > 100 µM
TGI [21]: > 100 µM
TGI [22]: > 100 µM
TGI [23]: > 100 µM
TGI [24]: > 100 µM
TGI [25]: > 100 µM
TGI [26]: > 100 µM
TGI [27]: > 100 µM
TGI [28]: > 100 µM
TGI [29]: > 100 µM
TGI [30]: > 100 µM
TGI [31]: > 100 µM
TGI [32]: > 100 µM
TGI [33]: > 100 µM
TGI [34]: > 100 µM
TGI [35]: > 100 µM
TGI [36]: > 100 µM
TGI [37]: > 100 µM
TGI [38]: > 100 µM
TGI [39]: > 100 µM
TGI [40]: > 100 µM
TGI [41]: > 100 µM
TGI [42]: > 100 µM
TGI [43]: > 100 µM
TGI [44]: > 100 µM
TGI [45]: > 100 µM
TGI [46]: > 100 µM
TGI [47]: > 100 µM
TGI [48]: > 100 µM
TGI [49]: > 100 µM
TGI [50]: > 100 µM
TGI [51]: > 100 µM
TGI [52]: > 100 µM
TGI [53]: > 100 µM

CC(C)[C@]12O[C@H]1[C@@H]1O[C@@]13[C@@]1(C)CCC4=C(COC4=O)[C@@H]1C[C@@H]1O[C@@]13C2=O
TGI [2]: 0.0685 µM
TGI [3]: > 100 µM
TGI [7]: > 100 µM
TGI [8]: 0.025 µM
TGI [9]: > 28.9 µM
TGI [12]: > 100 µM
TGI [13]: > 100 µM
TGI [14]: 0.0249 µM
TGI [15]: 0.115 µM
TGI [16]: 0.0829 µM
TGI [17]: 0.0882 µM
TGI [18]: > 100 µM
TGI [19]: > 100 µM
TGI [20]: > 100 µM
TGI [21]: > 22.6 µM
TGI [22]: > 100 µM
TGI [54]: 0.0493 µM
TGI [55]: 0.0541 µM
TGI [23]: > 100 µM
TGI [24]: 0.834 µM
TGI [25]: 0.0264 µM
TGI [26]: 0.0265 µM
TGI [27]: 0.3 µM
TGI [29]: < 0.0276 µM
TGI [30]: > 100 µM
TGI [31]: 0.328 µM
TGI [32]: > 53.2 µM
TGI [34]: 0.0621 µM
TGI [35]: > 100 µM
TGI [36]: > 100 µM
TGI [37]: 2.11 µM
TGI [38]: 0.063 µM
TGI [39]: < 0.0158 µM
TGI [40]: 0.522 µM
TGI [41]: > 100 µM
TGI [42]: 0.0428 µM
TGI [56]: 0.0151 µM
TGI [43]: 0.0397 µM
TGI [44]: 0.0309 µM
TGI [57]: > 100 µM
TGI [45]: > 100 µM
TGI [46]: > 40.9 µM
TGI [47]: 0.0444 µM
TGI [49]: > 42.1 µM
TGI [58]: > 100 µM
TGI [50]: > 100 µM
TGI [51]: > 78.7 µM
TGI [52]: 0.0669 µM
TGI [59]: 0.0312 µM
TGI [53]: > 100 µM

Clc1ccccc1/C=C\C1(c2ccccc2)OCCO1
TGI [1]: 31.1 µM
TGI [2]: 35.8 µM
TGI [3]: > 100 µM
TGI [4]: 31.4 µM
TGI [6]: 31.3 µM
TGI [7]: 53.8 µM
TGI [8]: 40.2 µM
TGI [9]: 30.3 µM
TGI [10]: 36 µM
TGI [11]: 31.9 µM
TGI [12]: 25.2 µM
TGI [13]: 26.3 µM
TGI [14]: 73.9 µM
TGI [15]: 39.8 µM
TGI [16]: > 100 µM
TGI [17]: 35.1 µM
TGI [18]: 33.2 µM
TGI [19]: 29.9 µM
TGI [20]: > 100 µM
TGI [21]: 23.7 µM
TGI [22]: 23.7 µM
TGI [54]: > 100 µM
TGI [23]: 7.53 µM
TGI [24]: 26.2 µM
TGI [25]: 29.6 µM
TGI [26]: 30.2 µM
TGI [27]: 73.4 µM
TGI [28]: 44.3 µM
TGI [29]: 22.1 µM
TGI [30]: 32.7 µM
TGI [31]: 29.3 µM
TGI [32]: 31.5 µM
TGI [33]: 31.6 µM
TGI [34]: 33 µM
TGI [35]: 44.4 µM
TGI [36]: 34.3 µM
TGI [38]: 23.1 µM
TGI [39]: 34.5 µM
TGI [40]: 29.2 µM
TGI [41]: 31.2 µM
TGI [42]: 53.3 µM
TGI [43]: 38 µM
TGI [44]: 38.6 µM
TGI [57]: 91.3 µM
TGI [45]: 32.7 µM
TGI [47]: 34.3 µM
TGI [48]: 28.9 µM
TGI [49]: 43.3 µM
TGI [58]: 43.4 µM
TGI [50]: 48.4 µM
TGI [51]: 24.8 µM
TGI [52]: 31.7 µM
TGI [59]: 29.5 µM
TGI [53]: > 100 µM
